Experimental data from article PMC12571071, “Preventing neuropathy and improving anticancer chemotherapy with a carbazole-based compound” (Science Advances, 2025).

Experiments:
PTX-induced neuropathy = assay: Rat model of PTX-induced peripheral neuropathy (von Frey, serum NfL, IENFD); assay type: in vivo
Procedure: Control animals received an equivalent volume of the vehicle (cremophor EL:ethanol, 1:1) diluted 1:4 in 0.9% NaCl.
Carba1 was injected intraperitoneally six times (50 mg/kg) on days 0, 1, 2, 4, 7, and 9, resulting in a cumulative dose of 300 mg/kg (Fig. 2F). For each injection, Carba1 was injected intraperitoneally at 50 mg/kg on days 0, 1, 2, 4, 7, and 9, for a cumulative dose of 300 mg/kg, using a stock solution (150 mg/ml; cremophor EL:ethanol, 1:1) diluted to 50 mg/ml in 0.9% NaCl. Control animals for Carba1 received the same volume of the vehicle [cremophor EL:ethanol (1:1) diluted 1:3 in 0.9% NaCl]. […] To prevent cross-exposure through feces and urine, treatment groups were randomized by cage, with each cage housing three animals.
Tactile allodynia, a common sensory disorder reported in animal models of CIPN ([56]), was assessed using an electronic von Frey test (Bioseb) ([68]). Rats were placed in plastic compartments on a wire floor and allowed to habituate for 15 min. […] The maximum force (in grams) causing withdrawal was recorded automatically. The average of two measurements, not differing by more than 10 g, was used as the nociceptive threshold ([68]). Rats were habituated to the compartments 3 days before the first injection, and the experimenter was blinded to treatment groups.
Blood samples were collected on day 15 in vials with a clot activator, left at R.T. for up to 1 hour before centrifugation at 4100 rpm at 20°C for 10 min. Serum was then collected, aliquoted, and stored at −80°C until analysis. To reduce batch effects, serum samples were randomized on assay plates. NfL concentration was measured in the serum using commercial kits (Simple Plex Ella ProteinSimple, USA; Rat NfL Kit ProteinSimple) ([27]).
Skin samples from both hind paws were fixed in 4% PFA overnight at 4°C, followed by sucrose cryoprotection (10, 20, and 30%) at 4°C overnight. After embedding in tissue freezing medium, the samples were at −80°C. Sections (20 μm) were cut using a cryostat at −17°C, washed with PBS for 5 min, and dried. The sections were blocked in PBS/0.2% Triton X-100/1%BSA for 1 hour and then incubated overnight at R.T. with anti-PGP9.5 antibody (1:400). After washing with PBS, sections were incubated with goat anti-rabbit Alexa Fluor488 secondary antibody for 2 hours, and the nuclei were stained with DAPI. Imaging was performed by acquiring 0.5 μm Z-stacks and exposure times for DAPI and fluorescein isothiocyanate set to 600 ms. Quantification followed the method described by Lauria et al. ([69]).

NAMPT = NAMPT (Homo sapiens, UniProt P43490); assay: NAMPT activity assay (coupled recombinant enzyme kit); assay type: biochemical; set-up: purchased Abcam ab221819; conditions: OD450 at 60 min, normalized by subtraction of DMSO value
NAMPT, sequence (P43490 whole entry): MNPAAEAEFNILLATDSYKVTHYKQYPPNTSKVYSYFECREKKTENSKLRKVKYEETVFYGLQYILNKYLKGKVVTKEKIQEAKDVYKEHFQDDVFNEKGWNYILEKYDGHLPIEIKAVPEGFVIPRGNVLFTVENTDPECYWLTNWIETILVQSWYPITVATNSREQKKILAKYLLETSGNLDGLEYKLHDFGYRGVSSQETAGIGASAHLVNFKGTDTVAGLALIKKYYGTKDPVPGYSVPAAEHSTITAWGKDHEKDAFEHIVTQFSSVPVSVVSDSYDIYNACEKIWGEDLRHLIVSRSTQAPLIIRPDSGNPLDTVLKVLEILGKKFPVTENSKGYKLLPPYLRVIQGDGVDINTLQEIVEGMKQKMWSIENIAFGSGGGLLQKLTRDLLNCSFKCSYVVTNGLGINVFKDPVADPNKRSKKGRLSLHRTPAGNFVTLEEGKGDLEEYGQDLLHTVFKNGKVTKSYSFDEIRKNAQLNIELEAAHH
Description: We next tested whether Carba1 could activate NAMPT in vitro. To that aim, we used a commercial recombinant human enzyme assay containing four enzymes: NAMPT, NAM nucleotide adenylyltransferase 1 (NMNAT1), alcohol dehydrogenase (ADH), and diaphorase (see Materials and Methods). In the presence of NAM and 5-phosphoribosyl-1-pyrophosphate (PRPP), NAMPT converts NAM to NMN, which is then converted into NAD^+ by NMNAT1, while ADH converts NAD^+ to NADH. Then, into a coupled-reaction, diaphorase converts NADH into NAD^+ and tetrazolium salt WST-1 {4-[3-(4-iodophenyl)-2-(4-nitro-phenyl)-2H-5-tetrazolio]-1,3-benzene sulfonate} to formazan, which can be detected at optical density at 450 nm (OD450). In practice, we proceeded in two steps. First, Carba1 and the different tested compounds were incubated for 15 min with NAMPT, NMNAT1, NAM, and PRPP to allow NAD^+ production. The reaction was then stopped with FK866 before adding ADH and diaphorase to convert the NAD^+ produced to NADH, and absorbance was monitored at regular intervals.
NAMPT activity was measured using the commercial kit, NAMPT Activity Assay, according to the manufacturer’s instructions. […] A mixture of water-soluble tetrazolium salts (WST-1), ADH, diaphorase, and ethanol was added and the absorbance (OD450) measured for 90 min using the microplate reader ClarioSTAR (BMG Labtech).

HeLa cells = system: HeLa cells; set-up: method as in PMID 32781579; conditions: dividing cells, 72-hour treatment; read-out: GI50 (50% of growth inhibition); cited from earlier work
[1] = system: HeLa cells xenografted in mice; assay: HeLa tumor xenograft in nude mice; assay type: in vivo; conditions: PTX 8 mg/kg
Procedure: Five-week-old NMRI nude mice (Janvier Labs) were implanted with 10 × 10^6 HeLa cells (200 μl in PBS) on the right flank. On day 6, the mean tumor volume was 120 ± 4 mm^3. […] Behavior and signs of pain were monitored daily. Body weight and tumor volume were measured two to three times per week using electronic calipers, with tumor volume (in cubic millimeters) calculated as length (millimeters)/2 × width^2 (square millimeters). Tumor growth inhibition was analyzed using GraphPad Prism with one-way analysis of variance (ANOVA) and Dunn’s multiple comparisons test for treatment versus vehicle. Mice were euthanized on day 20, when the vehicle group reached ethical limits. Blood samples were collected by intracardiac puncture in EDTA-coated tubes for differential blood counts and hemograms, outsourced to IDEXX BioAnalytics. For biochemical analysis, blood was collected in heparin-lithium tubes, and plasma was isolated by centrifugation and frozen at −80°C. Plasma was analyzed using MS Scan II (Melet Schloesing) and VET16 reagent rotors to measure markers of renal and hepatic function, metabolism, and nutritional and muscular status. Differential counts, hemograms, and biochemical data were analyzed with GraphPad Prism using Kruskal-Wallis test and Dunn’s multiple comparisons test.

[2] = rat serum, day 15, outliers removed

## Cc1cc(-n2cccc2)c(C)c2c1[nH]c1ccc(Cl)cc12 [Compound 1]
PTX-induced neuropathy; rat hind paw biopsies, day 15
  IENFD, mean: 19.54 number/mm
  IENFD, median: 19.88 number/mm
PTX-induced neuropathy; [2]
  NfL, mean: 22.14 pg/mL
  NfL, median: 22.40 pg/mL
PTX-induced neuropathy; rat, Carba1 50 mg/kg i.p. x6 with PTX 5 mg/kg i.p. x4
  effect on PTX-induced tactile allodynia: prevents PTX-induced tactile allodynia
PTX-induced neuropathy; rat, Carba1 cotreatment with PTX
  effect on PTX-induced intraepidermal nerve fiber degeneration: prevented PTX-induced intraepidermal nerve fiber degeneration
PTX-induced neuropathy; rat, i.p., PTX 5 mg/kg x4 or Carba1 50 mg/kg x6
  tactile allodynia (paw withdrawal threshold, electronic von Frey), agent alone: not analgesic
PTX-induced neuropathy; rat, vs controls
  reduction of IENFD, agent alone: had no effect
NAMPT
  activation of NAMPT in vitro: enhanced NAMPT activity in a dose-dependent manner
HeLa cells
  GI50: > 25 µM
[1]; i.v. every 2 days, Carba1 60 mg/kg alone or with PTX
  tumor size: no significant tumor size changes
[1]; i.v., Carba1 60 mg/kg, or combination
  toxicity (blood counts, markers of renal or hepatic function): no detectable toxicity
